Test results published in patent US6511978B1, “Pyrrole derivatives useful for farnesyl transferase inhibitors and their preparations” (LG Life Sciences, Ltd., priority 1999, dated 2003).

Assays:
Ras farnesyl transferase [1] = target: T1, Ras farnesyl transferase (Homo sapiens, UniProt P49354+P49356); experiment: Ras farnesyl transferase enzyme inhibition, K-Ras substrate (H-Ras fused with polybasic lysine domain of K-Ras); format: biochemical; conditions: K-Ras substrate (fused protein of H-Ras with polybasic lysine domain of K-Ras); recombinant farnesyl transferase
T1 construct: made in house
Description: (§1) In the present experiment, the improved Pompliano's method (see: Pompliano et al., Biochemistry, 31, 3800, 1992) was applied. Specifically, Ras farnesyl transferase produced by genetic recombination techniques was used, and fused protein of H-Ras(H-Ras-CVLS) substituted with polybasic lysine domain at C-terminus of K-Ras (see: Korean Patent Appln. No. 97-14409) was used as a substrate after it had been purified according to the known method(see, Chung et al., Biochimica et Biophysica Acta, 1129, 278, 1992).
(§2) The enzyme reaction was performed in 50 μl of 50 mM Sodium HEPES buffer solution containing 25 mM of potassium chloride, 25 mM of magnesium chloride, 10 mM of DTT and 50 μM of zinc chloride. 1.5 μM of Ras substrate protein, 0.15 μM of tritium-farnesylpyrophosphate and 4.5 nM of farnesyl transferase were used. More specifically, in the initial step, farnesyl transferase was added to the above buffer solution, reaction was maintained for 30 minutes at 37° C. and then the reaction was stopped by adding 1 ml of ethanol solution containing 1M HCl. The formed precipitates were adsorbed to GF/B filter using Hopper harvestor(Hopper #FH 225V) for filter-binding, washed with ethanol, and then radioactivity of the dried filter was measured using LKB β counter. Enzyme titer was measured in the unsaturated state of substrate where the concentration of Ras substrate protein and farnesyl transferase have quantitative relationship. The compound according to the present invention dissolved in dimethyl sulfoxide(DMSO) was added to the reaction solution in an amount of less than 5% of the total reaction solution, and then the enzyme inhibitory activity thereof was measured. The enzyme inhibitory activity was represented by percentage of the amount of farnesyl incorporated into the Ras substrate protein in the presence of the test compound to that in the absence of the test compound. IC50 of the test compound was defined as the concentration at which 50% of the enzyme activity was inhibited. To evaluate the selective enzyme inhibitory activity of the compound according to the present invention, inhibitory activity on geranylgeranyl transferase was measured. Geranylgeranyl transferase was purified from bovine brain according to the modified Schaber's method(Schaber et al., J. Biol. Chem. 265, 14701, 1990), and substantially the same experimental procedure as that for farnesyl transferase was performed on geranylgeranyl pyrophosphate and Ras-CVIL substrate protein.

Ras farnesyl transferase [2] = target: T2, Ras farnesyl transferase (Rattus norvegicus, UniProt Q02293+Q04631); experiment: In vivo (intracellular) Ras farnesylation inhibition in Rat2 cell line transformed with H-Ras fused with polybasic lysine domain of K-Ras; format: cell-based; conditions: Rat2 cells transformed with H-Ras/K-Ras polybasic domain fused protein; concentration inhibiting 50% of farnesyl binding; read-out: K-Ras CIC50
T2 construct: endogenous in cells; host or cells: Rat2 fibroblasts transformed with C-Harvey-Ras or with the H-Ras/K-Ras polybasic-domain fusion
Experimental: (§3) In the present experiment, Rat2 cell line which expresses C-Harvey-Ras protein having transforming activity and Rat2 cell line(Korean patent application No. 97-14409) which is transformed with fused protein of H-Ras substituted with polybasic lysine domain at C-terminus of K-Ras were used. The experiment was performed by the modified Declue's method(Declue. J. E. et al., Cancer Research, 51, 712, 1991) as follows.
(§4) 3×10^5 cells of transformed Rat2 fibroblast cell line were sprayed on 60 mm cell cultivation dish and cultivated for 48 hours in a cell incubator at 37° C. and after 50% or more of density was reached, it was treated with the test compounds. The compound according to the present invention dissolved in dimethylsulfoxide(DMSO) was used. 1% concentration of dimethylsulfoxide was used in both control and test groups. After 4 hours from the treatment with the compound, methionine labeled with 150 μCi of radioactive isotope [^35S] per 1 ml of medium was added and after cultivating for 20 hours, the cells were washed with physiological saline water. The cells were lysed using 1 ml of cold cell lysis buffer solution(50 mM of Sodium HEPES buffer solution containing 5 mM of magnesium chloride, 1 mM of DTT, 1% NP 40, 1 mM of EDTA, 1 mM of PMSF, 2 μM of leupeptin, 2 μM of pepstatin A and 2 μM of antipain) and the supernatant wherein the cells were lysed was obtained by high-velocity centrifugation of 12,000 g×5 minutes. The amount of radioisotope in the supernatant was measured and standardized to obtain a quantitative result in immunoprecipitation reaction and then, Y13-259, a monoclonal antiboby specifically binding to Ras protein(see: Furth, M. E. et al., J. Virol, 43, 294, 1982) was added and reacted for 15 hours at 4° C. Protein A(combined with goat anti-murine immunoglobulin antibody)-agarose suspension was added to the solution and reacted for 1 hour at 4° C. and then, to remove the unspecific binding product, immunoprecipitates were washed with a buffer solution (50 mM Tris chloride buffer solution containing 50 mM of sodium chloride, 0.5% of sodium dioxycholate, 0.5% of NP 40 and 0.1% of SDS). The precipitates were added to a buffer solution for electrophoresis and boiled and then, electrophoresis was performed using 13.5% of SDS polyacrylamide gel. After electrophoresis, the gel was fixed and dried. Then, the gel was exposed to X-ray film, developed and printed. From the result of the experiment, intensities of band of protein combined with or without farnesyl of Ras protein was measured, and the concentration of the test compound inhibiting 50% of farnesyl binding was defined as CIC50, an in vivo Ras farnesyl transferase inhibitory activity. IC50 means the data from Experimental 1 and CIC50 means the data from Experimental 2.

Ras farnesyl transferase [3] = target: T1, Ras farnesyl transferase; experiment: Ras farnesyl transferase enzyme inhibition, H-Ras substrate; format: biochemical; conditions: H-Ras substrate protein; recombinant farnesyl transferase; 30 minutes at 37° C.
Description: as §1, §2

Ras farnesyl transferase [4] = target: T2, Ras farnesyl transferase; experiment: In vivo (intracellular) Ras farnesylation inhibition in Rat2 cell line expressing C-Harvey-Ras; format: cell-based; conditions: Rat2 cells expressing C-Harvey-Ras; concentration inhibiting 50% of farnesyl binding; read-out: H-Ras CIC50
Experimental: as §3, §4

Row | SMILES | IC50 (Ras farnesyl transferase [1]) [nM] | IC50 (Ras farnesyl transferase [2]) [nM] | IC50 (Ras farnesyl transferase [3]) [nM] | IC50 (Ras farnesyl transferase [4]) [nM]
1 | CSc1c(C(=O)N2CCN(C)CC2)c(-c2cccc3ccccc23)cn1Cc1cncn1Cc1ccc2c(c1)OCO2 [Example 19, 1-[1-(3,4-methylenedioxybenzyl)-1H-imidazol-5-ylmethyl]-3-(4-methylpiperazin-1-yl)carbonyl-2-methylthio-4-(naphthalen-1-yl)-1H-pyrrole] | < 2 | > 10000 | < 0.95 | < 12.5
2 | Cc1c(C(=O)N2CCN(C)CC2)c(-c2cccc3ccccc23)cn1Cc1cncn1Cc1ccc2c(c1)OCO2 [Example 24, 2-methyl-1-[1-(3,4-methylenedioxybenzyl)-1H-imidazol-5-ylmethyl]-3-(4-methylpiperazin-1-yl)carbonyl-4-(naphthalen-1-yl)-1H-pyrrole] | < 7 | < 10000 | < 4.45 | > 25
3 | CCSc1c(C(=O)N2CCN(C)CC2)c(-c2cccc3ccccc23)cn1Cc1cncn1Cc1ccc2c(c1)OCO2 [Example 25, 2-ethylthio-1-[1-(3,4-methylenedioxybenzyl)-1H-imidazol-5-ylmethyl]-3-(4-methylpiperazin-1-yl)carbonyl-4-(naphthalen-1-yl)-1H-pyrrole] | < 6 | < 5000 | < 2 | < 10
4 | COc1ccccc1CCn1c(Cn2cc(C(=O)N3CCN(C)CC3)c(-c3cccc4ccccc34)c2)cnc1C [Example 26, 1-[1-(2-methoxyphenethyl)-2-methyl-1H-imidazol-5-ylmethyl]-3-(4-methylpiperazin-1-yl)carbonyl-4-(naphthalen-1-yl)-1H-pyrrole] | < 6.5 | > 10000 | < 2 | < 25
5 | CCOCCCn1c(Cn2cc(C(=O)N3CCN(C)CC3)c(-c3cccc4ccccc34)c2)cnc1C [Example 27, 1-[1-(3-ethoxypropyl)-2-methyl-1H-imidazol-5-ylmethyl]-3-(4-methylpiperazin-1-yl)carbonyl-4-(naphthalen-1-yl)-1H-pyrrole] | > 20 | > 10000 | < 3 | < 25
6 | CCOCCCn1cnc(C)c1Cn1cc(C(=O)N2CCN(C)CC2)c(-c2cccc3ccccc23)c1 [Example 28, 1-[1-(3-ethoxypropyl)-4-methyl-1H-imidazol-5-ylmethyl]-3-(4-methylpiperazin-1-yl)carbonyl-4-(naphthalen-1-yl)-1H-pyrrole] | < 3.2 | < 10000 | < 2.2 | < 6.25
7 | Cc1ncn(CCCOCc2ccccc2)c1Cn1cc(C(=O)N2CCN(C)CC2)c(-c2cccc3ccccc23)c1 [Example 29, 1-[1-(3-benzyloxypropyl)-4-methyl-1H-imidazol-5-ylmethyl]-3-(4-methylpiperazin-1-yl)carbonyl-4-(naphthalen-1-yl)-1H-pyrrole] | < 2.7 | < 10000 | < 2.45 | < 6.25
8 | COCCN(C)C(=O)c1cn(Cc2c(C)ncn2CCCOCc2ccccc2)cc1-c1cccc2ccccc12 [Example 30, 1-[1-(3-benzyloxypropyl)-4-methyl-1H-imidazol-5-ylmethyl]-3-[N-(2-methoxyethyl)-N-methyl]carbamoyl-4-(naphthalen-1-yl)-1H-pyrrole] | < 2.1 | < 10000 | < 5 | < 12.5

The remaining lines, values ahead:

Row | IC50 (Ras farnesyl transferase [1]) [nM] | IC50 (Ras farnesyl transferase [2]) [nM] | IC50 (Ras farnesyl transferase [3]) [nM] | IC50 (Ras farnesyl transferase [4]) [nM] | SMILES
9 | < 2.3 | > 10000 | < 1.5 | > 25 | Cc1ncn(Cc2ccc3c(c2)OCO3)c1Cn1cc(C(=O)N2CCN(C)CC2)c(-c2cccc3ccccc23)c1 [Example 16, 1-[4-methyl-1-(3,4-methylenedioxybenzyl)-1H-imidazol-5-ylmethyl]-3-(4-methylpiperazin-1-yl)carbonyl-4-(naphthalen-1-yl)-1H-pyrrole]
10 | < 6.4 | > 10000 | < 1.8 | > 25 | CN1CCN(C(=O)c2cn(Cc3cnc(N)n3Cc3ccc4c(c3)OCO4)cc2-c2cccc3ccccc23)CC1 [Example 17, 1-[2-amino-1-(3,4-methylenedioxybenzyl)-1H-imidazol-5-ylmethyl]-3-(4-methylpiperazin-1-yl)carbonyl-4-(naphthalen-1-yl)-1H-pyrrole]
11 | < 12 | > 10000 | < 3.5 | > 25 | CSc1ncc(Cn2cc(C(=O)N3CCN(C)CC3)c(-c3cccc4ccccc34)c2)n1Cc1ccc2c(c1)OCO2 [Example 18, 1-[1-(3,4-methylenedioxybenzyl)-2-methylthio-1H-imidazol-5-ylmethyl]-3-(4-methylpiperazin-1-yl)carbonyl-4-(naphthalen-1-yl)-1H-pyrrole]
12 | < 18 | > 10000 | < 3.5 | > 25 | CN1CCN(C(=O)c2cn(Cc3c(I)ncn3Cc3ccc4c(c3)OCO4)cc2-c2cccc3ccccc23)CC1 [Example 20, 1-[4-iodo-1-(3,4-methylenedioxybenzyl)-1H-imidazol-5-ylmethyl]-3-(4-methylpiperazin-1-yl)carbonyl-4-(naphthalen-1-yl)-1H-pyrrole]
13 | > 30 | > 10000 | > 30 | > 30 | CN1CCN(C(=O)c2cn(Cc3c([N+](=O)[O-])ncn3Cc3ccc4c(c3)OCO4)cc2-c2cccc3ccccc23)CC1 [Example 21, 1-[1-(3,4-methylenedioxybenzyl)-4-nitro-1H-imidazol-5-ylmethyl]-3-(4-methylpiperazin-1-yl)carbonyl-4-(naphthalen-1-yl)-1H-pyrrole]
14 | < 30 | > 10000 | < 2.7 | > 25 | CN1CCN(C(=O)c2cn(Cc3c(N)ncn3Cc3ccc4c(c3)OCO4)cc2-c2cccc3ccccc23)CC1 [Example 22, 1-[4-amino-1-(3,4-methylenedioxybenzyl)-1H-imidazol-5-ylmethyl]-3-(4-methylpiperazin-1-yl)carbonyl-4-(naphthalen-1-yl)-1H-pyrrole]
15 | > 30 | > 10000 | < 22 | > 30 | CON1CCN(C(=O)c2cn(Cc3c(C)ncn3Cc3ccc4c(c3)OCO4)cc2-c2cccc3ccccc23)CC1 [Example 23, 3-(4-methoxypiperazin-1-yl)carbonyl-1-[4-methyl-1-(3,4-methylenedioxybenzyl)-1H-imidazol-5-ylmethyl]-4-(naphthalen-1-yl)-1H-pyrrole]
